“Also recorded” adds a separate entry of the source. Read-outs that look alike come from different tables or passages of the source.
Columns and labels:
Prox1^ΔVEC mice = conditions: 50 mg/kg body weight/day oral; for aortic peak velocity: 24 weeks from 1 month of age, echocardiography, vs untreated Prox1^ΔVEC mice; for aortic peak velocity / platelet aggregate-like (thrombus-like) structures in aortic valves / abnormal elastin expression/distribution in aortic valves / aortic valve thickness (progressive thickening) / versican expression in aortic valves: 50 mg/kg/day; for platelet aggregate-like (thrombus-like) structures in aortic valves / abnormal elastin expression/distribution in aortic valves / aortic valve thickness (progressive thickening) / versican expression in aortic valves: 24 weeks; for platelet aggregate-like (thrombus-like) structures in aortic valves: Movat Pentachrome-stained sections; for abnormal elastin expression/distribution in aortic valves: downstream side of aortic valves; for aortic valve thickness (progressive thickening): histology, area of valve leaflets; for versican expression in aortic valves: immunohistochemistry; for valve defects / progression of valve disease: mice lacking Prox1 (Prox1^ΔVEC)
[1] = test system: patients with PDGFRβ hyperactivating mutations; conditions: cited from earlier work
c-Kit = c-Kit (Homo sapiens, UniProt P10721); conditions: cited from earlier work
PDGFRβ = PDGFRβ (Homo sapiens, UniProt P09619); conditions: not specific for PDGFRβ; cited from earlier work
PDGFRα = PDGFRα (Homo sapiens, UniProt P16234); conditions: cited from earlier work
Chain of PDGFRα (P16234 24-1089, species assumed): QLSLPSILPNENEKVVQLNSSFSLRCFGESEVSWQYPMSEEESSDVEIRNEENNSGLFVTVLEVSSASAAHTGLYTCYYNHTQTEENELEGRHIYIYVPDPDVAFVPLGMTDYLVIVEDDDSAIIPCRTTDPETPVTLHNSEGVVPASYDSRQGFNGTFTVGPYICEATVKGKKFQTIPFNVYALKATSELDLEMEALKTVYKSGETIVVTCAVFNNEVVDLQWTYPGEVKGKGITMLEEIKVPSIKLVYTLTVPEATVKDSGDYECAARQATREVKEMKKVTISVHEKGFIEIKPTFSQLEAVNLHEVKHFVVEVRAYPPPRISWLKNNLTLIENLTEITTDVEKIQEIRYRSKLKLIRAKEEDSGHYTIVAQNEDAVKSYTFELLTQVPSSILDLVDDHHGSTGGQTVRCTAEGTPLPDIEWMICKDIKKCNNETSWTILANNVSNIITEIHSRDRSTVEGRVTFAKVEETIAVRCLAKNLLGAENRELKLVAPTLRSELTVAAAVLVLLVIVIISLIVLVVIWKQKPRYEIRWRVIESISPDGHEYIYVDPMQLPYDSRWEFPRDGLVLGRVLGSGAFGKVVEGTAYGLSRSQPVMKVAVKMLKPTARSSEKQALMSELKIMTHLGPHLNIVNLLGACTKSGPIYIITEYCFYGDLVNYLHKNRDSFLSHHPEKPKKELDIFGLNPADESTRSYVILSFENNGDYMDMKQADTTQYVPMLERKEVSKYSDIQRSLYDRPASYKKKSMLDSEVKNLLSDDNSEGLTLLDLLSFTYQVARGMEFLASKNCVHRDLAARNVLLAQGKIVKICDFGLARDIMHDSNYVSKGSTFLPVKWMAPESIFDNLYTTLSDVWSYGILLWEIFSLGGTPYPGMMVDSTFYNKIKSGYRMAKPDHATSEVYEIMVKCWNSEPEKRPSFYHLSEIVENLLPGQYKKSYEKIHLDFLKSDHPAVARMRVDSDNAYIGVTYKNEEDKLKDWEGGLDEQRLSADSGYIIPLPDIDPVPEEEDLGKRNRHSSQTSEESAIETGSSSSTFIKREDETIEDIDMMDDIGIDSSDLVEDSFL

Chain of PDGFRβ (P09619 33-1106): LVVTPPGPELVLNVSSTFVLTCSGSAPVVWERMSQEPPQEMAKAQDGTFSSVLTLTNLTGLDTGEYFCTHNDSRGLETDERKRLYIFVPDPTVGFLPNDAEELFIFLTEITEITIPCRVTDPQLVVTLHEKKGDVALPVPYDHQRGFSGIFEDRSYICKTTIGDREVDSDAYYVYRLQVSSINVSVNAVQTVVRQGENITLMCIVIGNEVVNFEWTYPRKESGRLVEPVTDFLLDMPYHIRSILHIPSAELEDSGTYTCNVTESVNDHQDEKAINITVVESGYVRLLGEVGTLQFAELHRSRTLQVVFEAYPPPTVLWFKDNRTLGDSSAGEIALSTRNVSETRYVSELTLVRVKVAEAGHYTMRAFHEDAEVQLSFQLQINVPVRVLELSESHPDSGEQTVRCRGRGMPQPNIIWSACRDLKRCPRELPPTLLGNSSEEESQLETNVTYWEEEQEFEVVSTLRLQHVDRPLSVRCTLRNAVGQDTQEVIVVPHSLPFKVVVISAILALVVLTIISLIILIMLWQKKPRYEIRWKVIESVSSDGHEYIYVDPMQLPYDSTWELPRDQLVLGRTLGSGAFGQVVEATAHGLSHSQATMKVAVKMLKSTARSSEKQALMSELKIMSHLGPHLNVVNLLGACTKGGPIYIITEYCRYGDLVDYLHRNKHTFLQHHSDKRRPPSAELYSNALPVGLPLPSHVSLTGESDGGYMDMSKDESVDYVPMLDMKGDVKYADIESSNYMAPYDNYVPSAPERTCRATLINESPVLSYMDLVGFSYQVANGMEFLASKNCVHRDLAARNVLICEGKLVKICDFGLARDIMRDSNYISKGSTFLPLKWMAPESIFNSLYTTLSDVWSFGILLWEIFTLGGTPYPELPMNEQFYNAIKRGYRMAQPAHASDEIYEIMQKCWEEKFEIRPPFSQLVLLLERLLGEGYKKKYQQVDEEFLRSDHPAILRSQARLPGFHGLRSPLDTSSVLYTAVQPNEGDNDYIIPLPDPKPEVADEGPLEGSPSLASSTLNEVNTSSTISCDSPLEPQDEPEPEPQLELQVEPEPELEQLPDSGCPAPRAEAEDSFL
Chain of c-Kit (P10721 26-976): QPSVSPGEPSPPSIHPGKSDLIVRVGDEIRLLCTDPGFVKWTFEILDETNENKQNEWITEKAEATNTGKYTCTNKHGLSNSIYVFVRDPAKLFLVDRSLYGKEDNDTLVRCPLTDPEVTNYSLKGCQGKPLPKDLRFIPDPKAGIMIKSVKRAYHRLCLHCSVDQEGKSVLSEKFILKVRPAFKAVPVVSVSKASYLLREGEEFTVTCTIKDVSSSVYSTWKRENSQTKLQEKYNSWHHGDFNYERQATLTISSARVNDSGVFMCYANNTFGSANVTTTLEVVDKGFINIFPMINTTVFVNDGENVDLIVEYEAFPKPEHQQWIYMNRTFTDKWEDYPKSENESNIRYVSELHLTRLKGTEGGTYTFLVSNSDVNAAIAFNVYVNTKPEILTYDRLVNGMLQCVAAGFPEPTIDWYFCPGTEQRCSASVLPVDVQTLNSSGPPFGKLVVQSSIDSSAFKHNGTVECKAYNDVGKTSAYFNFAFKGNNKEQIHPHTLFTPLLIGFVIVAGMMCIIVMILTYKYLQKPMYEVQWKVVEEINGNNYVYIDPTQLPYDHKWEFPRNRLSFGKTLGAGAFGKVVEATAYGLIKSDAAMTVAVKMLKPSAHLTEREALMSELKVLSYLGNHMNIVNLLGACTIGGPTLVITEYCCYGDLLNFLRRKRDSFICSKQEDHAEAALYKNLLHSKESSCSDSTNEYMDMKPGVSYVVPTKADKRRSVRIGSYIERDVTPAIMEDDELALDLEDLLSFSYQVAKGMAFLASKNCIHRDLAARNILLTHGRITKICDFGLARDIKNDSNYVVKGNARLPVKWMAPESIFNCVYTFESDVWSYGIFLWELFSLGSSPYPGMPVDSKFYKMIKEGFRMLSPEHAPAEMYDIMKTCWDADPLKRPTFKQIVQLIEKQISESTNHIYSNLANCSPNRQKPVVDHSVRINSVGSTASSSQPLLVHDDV

Structure (SMILES): Cc1ccc(NC(=O)c2ccc(CN3CCN(C)CC3)cc2)cc1Nc1nccc(-c2cccnc2)n1 [imatinib]
- elastin expression in mitral valves (Prox1^ΔVEC mice; Prox1^ΔVEC mice, 6 months): significantly normalized
- expression of SOX9 in the aortic and mitral valves (Prox1^ΔVEC mice; Prox1^ΔVEC mice, 6 months): normalized
- thickness of the mitral valves (Prox1^ΔVEC mice; Prox1^ΔVEC mice, 6 months): did not reduce
- versican expression in mitral valves (Prox1^ΔVEC mice; Prox1^ΔVEC mice, 6 months): significantly normalized
- aortic peak velocity (Prox1^ΔVEC mice; Prox1^ΔVEC mice): preventing an increase in peak velocity
- aortic peak velocity (Prox1^ΔVEC mice; Prox1^ΔVEC mice, listed as Imb): lowered aortic peak velocity
- platelet aggregate-like (thrombus-like) structures in aortic valves (Prox1^ΔVEC mice; Prox1^ΔVEC mice): reduced by imatinib treatment
- platelet aggregate-like (thrombus-like) structures in aortic valves (Prox1^ΔVEC mice; Prox1^ΔVEC mice, listed as Imb): reduced
- abnormal elastin expression/distribution in aortic valves (Prox1^ΔVEC mice; Prox1^ΔVEC mice): significantly reduced
- abnormal elastin expression/distribution in aortic valves (Prox1^ΔVEC mice; Prox1^ΔVEC mice, listed as Imb): rescued
- aortic valve thickness (progressive thickening) (Prox1^ΔVEC mice; Prox1^ΔVEC mice): does not ameliorate the progressive thickening
- aortic valve thickness (progressive thickening) (Prox1^ΔVEC mice; Prox1^ΔVEC mice, listed as Imb): not reduced
- versican expression in aortic valves (Prox1^ΔVEC mice; Prox1^ΔVEC mice): reduced the expression of versican
- versican expression in aortic valves (Prox1^ΔVEC mice; Prox1^ΔVEC mice, listed as Imb): inhibited
- valve defects / progression of valve disease (Prox1^ΔVEC mice; 6 months): partially rescue the valve defects; also recorded: prevents the progression of valve disease
- valve defects / progression of valve disease (Prox1^ΔVEC mice; 6 months, listed as Imatinib): Attenuates Aortic Valve Degeneration
- connective tissue disorders [1]: ameliorated
- inhibition of kinase activity (c-Kit): inhibits the activity
- inhibition of kinase activity (PDGFRβ): inhibits the activity
- inhibition of kinase activity (PDGFRα): inhibits the activity

Reference: patent publication US20240165199A1, “PROX1 PREVENTS MYXOMATOUS VALVE DISEASE BY INHIBITING PDGF-B SIGNALING” (Oklahoma Medical Research Foundation, priority 2022, published 2024)
